In patent publication US6130250A, “Veterinary use of a pleuromutilin derivative” (priority 1996, dated 2000):
Where a name gives a salt, the structure may show the parent alone. Read-outs that look alike come from different tables or passages of the source.

Columns and labels:
Haemophilus parasuis = test: MIC against Haemophilus parasuis isolates; type: cell-based; settings: for MIC: Glaesserella parasuis, 3 isolates
Experimental: (§1) The minimal inhibitory concentration (MIC) of valnemulin hydrochloride against recent isolates of Pasteurelia multocida, Haemophilus pleuropneumoniae and Haemophilus parasuis originating from porcine respiratory material is determined and compared with tiamulin. […] Three of the Pasteurella isolates were toxigenic strains of Pasteurella multocida. For H. pleuropneumoniae and H. parasuis, on the day before testing a single loopful of each of the pure cultures is inoculated into 10 ml of Todd & Hewitt broth (Unipath CM190) containing 1% donor calf serum and 2 mg per ml of nicotinamide adenine dinucleotide (NAD). For P. multocida, […] a single loopful of each of the pure cultures is inoculated into 10 ml of nutrient broth No. 2 (Unipath CM67) containing 1% donor calf serum. Each of the prepared broth cultures are incubated for 18 hours at 37° C. in 10% CO2. […] For each test compound, standard control cultures of Oxford Staphylococcus aureus NCTC 6571 are also set up to validate the results of the MIC tests. In each case, broth cultures set up from the control organisms are identical to those of the organisms under test. Valnemulin is a hydrochloride, tiamulin is used as the hydrogen fumarate. […] Sensitised agar (Oxoid CM409) containing lysed horse blood (Oxoid SR50) is prepared according to the manufacturer's recommendations and adjusted to pH 7.4 it necessary. […] Four replicate plates are prepared from each dilution. […] After inoculation the growth of the organisms is examined initially by eye followed by microscopic examination on a stereo zoom microscope. The MIC value is taken as the lowest concentration of test compound at which no growth can be detected at the point of inoculation on all four plates by microscopic examination.

Mycoplasma gallisepticum = test: Challenge study, treatment of Mycoplasma gallisepticum infection; type: in vivo, male broiler chicks; settings: for mortality: valnemulin all three concentrations, tiamulin 0.05%
Source text: Groups of male broiler chicks are infected with a virulent strain of Mycoplasma gallisepticum (MG) and each group medicated respectively with valnemulin at a concentration of 0.0125%, 0.025%, 0.05%, tiamulin at the same concentration, tylosin 0.05% and a […], spectinomycin combination (Linco-Spectin) 0.083%. There is also one infected group left untreated and an uninfected group. The chicks are infected at two days of age by the injection of 3.4×10^5 organisms into each lung. Medication in the drinking water is commenced 24 hours later for three successive days except for Linco-Spectin with which treatment was continued for 5 days.

[1] = system: Haemophilus pleuropneumoniae; test: MIC against Haemophilus pleuropneumoniae isolates; type: cell-based; settings: for MIC: Actinobacillus pleuropneumoniae, 10 isolates
Experimental: as §1

S. hyodysenteriae [2] = test: MIC determination by agar dilution, 10 strains from porcine faeces; type: cell-based, Serpulina hyodysenteriae; settings: for MIC: Brachyspira hyodysenteriae
Experimental: Minimum inhibitory concentrations (MICs) are determined against 10 strains of S. hyodysenteriae isolated from porcine faeces, by the agar dilution method. NCTC (National Collection of Type Cultures) strains or reference strains are used as controls in all MIC tests. The agar medium for S. hyodysenteriae consists of BAB2 (Unipath CM271) containing 7% whole defibrinated sterile sheep blood. All antimicrobial agents are tested in doubling dilutions. Prepared antibiotic dilutions are added to an appropriate volume of MH agar, previously cooled to 50° C., mixed and 20 ml volumes poured. All S. hyodysenteriae incubations are performed in an anaerobic work station at 37° C. (+/-0.5° C.) (Don Whitley Scientific) which provides a strict anaerobic atmosphere comprising 80% nitrogen, 10% hydrogen and 10% carbon dioxide. All other incubations are performed at 37° C. All strains are incubated in an […] atmosphere at 37° C. for 24 hours. The numbers of the organisms are adjusted to an optical density (OD) equivalent to 1×10^8 colony forming units (cfu) per ml, using MH broth as a blank. The antibiotic containing plates are inoculated in duplicate using a multipoint inoculator (Denley Instruments) which delivers a plate inoculum of approximately 1 μl giving an inoculum of 10^4 -10^5 cfu per spot for all strains (Amon, J. Antimicrob. Chemother. 21 [1988] 701-710; Ericsson et al., Acta Pathol. Microbiol. et Immunol. Scand. 217 [1971] (B) Suppl., 1-90). Control plates are incubated under the same conditions as the test plates. The MICs are read after 24 and 48 hours, the latter being the definitive reading. The MIC is defined as the lowest concentration of antibiotic on which there is no growth, disregarding a single colony or a faint haze caused by the inoculum (National Committee for Clinical Laboratory Standards [1989], Antimicrobial Susceptibility Testing, NCCLC Publications SC3, Villanova, Pa., USA).

S. hyodysenteriae [3] = test: Challenge trial: prevention of swine dysentery; type: in vivo, pigs; settings: for pigs with S. hyodysenteriae isolated: rectal swabs
Experimental: Two trials were effected where valnemulin fed at various inclusion levels is compared to tiamulin for the prevention of swine dysentery. The severity of disease is assessed by the evidence of clinical disease as determined by clinical scores for body condition, faeces consistency and composition. The excretion of Serpulina hyodysenteriae in faeces, lesions at post-mortem examination, growth rate and feed conversion ratio are also determined.
In the first trial valnemulin hydrochloride fed at 20, 30 and 40 ppm is compared with tiamulin hydrogen fumarate fed at 30 ppm and with unmedicated controls. Five groups of 9 (5 to 6 week old) conventionally reared pigs are used for each treatment group. The pigs are fed unmedicated food for 14 days, then challenged with the standard strain of S. hyodysenteriae (P18A). Challenge is by the oral route on two consecutive days. The medicated feed is introduced on the day after the second challenge. In the second trial a similar procedure is followed except that 4 groups of approximately 9 pigs were used. These are fed valnemulin hydrochloride at 5, 10 and 20 ppm and compared to unmedicated controls. In this trial the pigs used are from an outdoor reared herd and are challenged with a strain of S. hyodysenteriae isolated from an outdoor herd and previously shown to be capable of causing swine dysentery. In both trials the evidence of clinical disease is assessed daily and a clinical score assigned, rectal swabs are taken twice weekly for isolation of S. hyodysenteriae and all pigs are weighed at regular intervals. Food intake is also recorded. A post-mortem examination is carried out 21 days after challenge and the large intestine examined for the presence of lesions. Mucosal scrapings are also taken from 4 areas in the large intestine and cultured for S. hyodysenteriae.

Serpulina hyodysenteriae = test: MIC determination on agar, 10 S. hyodysenteriae strains; type: cell-based
[4] = first trial, valnemulin 20 and 40 ppm

C=C[C@]1(C)C[C@@H](OC(=O)CSC(C)(C)CNC(=O)[C@H](N)C(C)C)[C@]2(C)[C@H](C)CC[C@]3(CCC(=O)[C@H]32)[C@@H](C)[C@@H]1O [valnemulin hydrochloride, 14-O-[1-[(R)-2-amino-3-methylbutyrylamino]-2-methylpropan-2-ylthioacetyl]mutilin]
MIC (Haemophilus parasuis; 18 h, read-out: MIC mean): 0.25 µg/mL | MIC (Haemophilus parasuis; read-out: MIC range): 0.25 µg/mL | mean increase in activity compared with tiamulin (Haemophilus parasuis; H. parasuis): three fold | overall efficacy vs comparators (Mycoplasma gallisepticum; valnemulin 0.025% and 0.05% in drinking water): at least as good as or better than tiamulin at 0.05% or tylosin at 0.05% and very much better than Linco-Spectin | recovery of Mycoplasma at 23 days (Mycoplasma gallisepticum; valnemulin 3 groups, tylosin 0.05%): not recovered | mortality (Mycoplasma gallisepticum): no more than 5% | weight gains (Mycoplasma gallisepticum; valnemulin at all concentrations): higher than for the tiamulin treated groups and equal to the tylosin group | lesions (Mycoplasma gallisepticum; valnemulin highest and lowest doses): Lesions were not seen | MIC ([1]; 18 h, read-out: MIC mean): 0.85 µg/mL | MIC ([1]; read-out: MIC range): 0.125 to 4 µg/mL | mean increase in activity compared with tiamulin ([1]; H. pleuropneumoniae): five and a half fold | MIC (S. hyodysenteriae [2]): 0.1 µg/mL | susceptibility of S. hyodysenteriae strains (S. hyodysenteriae [2]; all strains): susceptible | most active of the agents tested by (S. hyodysenteriae [2]; vs tiamulin, lincomycin, tylosin, dimetridazole): 3-600 fold | pigs with S. hyodysenteriae isolated (S. hyodysenteriae [3]; first trial, valnemulin 30 ppm): 2 pigs | isolation of S. hyodysenteriae (S. hyodysenteriae [3]; [4]): not isolated | post-mortem lesions (S. hyodysenteriae [3]; [4]): Lesions were not seen | evidence of disease (S. hyodysenteriae [3]; first trial, valnemulin 20 and 40 ppm in feed): Evidence of disease was not seen | isolation of S. hyodysenteriae from mucosal scrapings (S. hyodysenteriae [3]; first trial, valnemulin 30 ppm): not isolated from mucosal scrapings | pigs with post-mortem lesions (S. hyodysenteriae [3]; first trial, valnemulin 30 ppm): One pig | pigs with clinical disease (S. hyodysenteriae [3]; first trial, valnemulin 30 ppm in feed): 1 pig | inclusion rate down to which effective in preventing swine dysentery (S. hyodysenteriae [3]; in feed): 10 ppm | animals affected (S. hyodysenteriae [3]; second trial, 5 ppm): 5 out of 10 | p of mean clinical score vs controls (S. hyodysenteriae [3]; second trial, 5 ppm): < 0.005 | p of numbers affected vs controls (S. hyodysenteriae [3]; second trial, 5 ppm): < 0.05 | p, heavier than controls at end of trial (S. hyodysenteriae [3]; second trial, 5 ppm): 0.05 | other animals with lesions and S. hyodysenteriae in mucosal scrapings (S. hyodysenteriae [3]; second trial, 5 ppm, no clinical signs): 2 animals | pigs with post-mortem lesions (S. hyodysenteriae [3]; second trial, 5 ppm, of 5 pigs with previous signs, S. hyodysenteriae not isolated): 2 | pigs with S. hyodysenteriae isolated from rectal swabs (S. hyodysenteriae [3]; second trial, 5 ppm, of the 5 animals affected): 2 | mean clinical score (S. hyodysenteriae [3]; second trial, 5 ppm, control 77): 11 | first clinical signs after challenge (S. hyodysenteriae [3]; second trial, 5 ppm, control 5 days): 8 days | p, heavier than controls at end of trial (S. hyodysenteriae [3]; second trial, 10 and 20 ppm): < 0.05 | clinical signs of disease (S. hyodysenteriae [3]; second trial, 10 or 20 ppm): not seen | isolation of S. hyodysenteriae (S. hyodysenteriae [3]; second trial, 10 or 20 ppm): not isolated | post-mortem lesions (S. hyodysenteriae [3]; second trial, 10 or 20 ppm): Lesions were not seen | prevention of swine dysentery in words (S. hyodysenteriae [3]; valnemulin 5 ppm in feed): did not completely prevent clinical disease or the shedding of spirochaetes | prevention compared with tiamulin (S. hyodysenteriae [3]; valnemulin 10 ppm in feed): clearly more effective than Tiamulin at 30 ppm | number of strains with MIC 0.0156 μg/ml (Serpulina hyodysenteriae; 10 S. hyodysenteriae strains): 2 | number of strains with MIC 0.0312 μg/ml (Serpulina hyodysenteriae; 10 S. hyodysenteriae strains): 4 | number of strains with MIC 1 μg/ml (Serpulina hyodysenteriae; 10 S. hyodysenteriae strains): 1 | MIC times less than those of tiamulin (Serpulina hyodysenteriae; S. hyodysenteriae strains): 2-32 times | susceptibility of S. hyodysenteriae strains (Serpulina hyodysenteriae; all strains): highly susceptible

C=C[C@]1(C)C[C@@H](OC(=O)CSCCN(CC)CC)[C@]2(C)[C@H](C)CC[C@]3(CCC(=O)[C@H]32)[C@@H](C)[C@@H]1O [tiamulin hydrogen fumarate]
MIC (Haemophilus parasuis; 18 h, read-out: MIC mean): 0.7 µg/mL | MIC (Haemophilus parasuis; read-out: MIC range): 0.5 to 1 µg/mL | lesions (Mycoplasma gallisepticum; tiamulin and tylosin): only a few | mortality (Mycoplasma gallisepticum): no more than 5% | MIC ([1]; 18 h, read-out: MIC mean): 4.5 µg/mL | MIC ([1]; read-out: MIC range): 0.125 to 16 µg/mL | MIC (S. hyodysenteriae [2]): 0.3 µg/mL | pigs with S. hyodysenteriae isolated (S. hyodysenteriae [3]; first trial, tiamulin 30 ppm): 2 | isolation of S. hyodysenteriae from mucosal scrapings (S. hyodysenteriae [3]; first trial, tiamulin 30 ppm): isolated from mucosal scrapings taken from all of these affected animals | post-mortem lesions in pigs with clinical signs (S. hyodysenteriae [3]; first trial, tiamulin 30 ppm): typical lesions of swine dysentery | post-mortem lesions in pigs without previous clinical signs (S. hyodysenteriae [3]; first trial, tiamulin 30 ppm): one pig | animals with clinical disease (S. hyodysenteriae [3]; first trial, tiamulin 30 ppm in feed): 2 out of 9 | mean clinical score per pig (S. hyodysenteriae [3]; first trial, tiamulin 30 ppm, control 36): 6 | prevention of swine dysentery in words (S. hyodysenteriae [3]; tiamulin 30 ppm in feed): did not prevent swine dysentery but reduced the incidence of disease | number of strains with MIC 0.125 μg/ml (Serpulina hyodysenteriae; 10 S. hyodysenteriae strains): 6 | number of strains with MIC 0.250 μg/ml (Serpulina hyodysenteriae; 10 S. hyodysenteriae strains): 1 | number of strains with MIC 0.500 μg/ml (Serpulina hyodysenteriae; 10 S. hyodysenteriae strains): 1 | number of strains with MIC 1 μg/ml (Serpulina hyodysenteriae; 10 S. hyodysenteriae strains): 2
